Reference: US20260263400A1, “COMPOUND COMPOSITION INCLUDING TRANEXAMIC ACID AND TRETINOIN” (Nanjing Indetek Laboratory Co., Ltd., priority 2023, published 2026)
“Also recorded” adds a separate entry of the source.

Test system: Guinea pig, Hartley-Dunkin

O=[N+]([O-])c1ccc(Cl)c([N+](=O)[O-])c1 [1-Chloro-2,4-dinitrobenzene]
body weight compared with the negative control group (D15, D31, D38): male animals showed slow weight gain; also recorded: female animals showed no significant difference in body weight
incidence of allergic reaction (after challenge): 100%
